According to patent US20220402948A1, “EGFR INHIBITOR, COMPOSITION AND PREPARATION METHOD THEREFOR” (BETTA PHARMACEUTICALS CO., LTD., priority 2019, published 2022):
Like-named read-outs stand apart in the source and are kept apart here.

What was measured:
EGFRΔ19del/T790M/C797S = EGFRΔ19del/T790M/C797S (Homo sapiens, UniProt P00533, T790M/C797S, form not given); experiment: EGFR Δ19del/T790M/C797S kinase test (mobility variation analysis, Caliper EZ Reader); type: biochemical; settings: kinase enzymatic activity, Table 1
Description: (§1) Mobility variation analysis was performed to determine the affinity of the compound for EGFRΔ19del/T790M/C797S, EGFR WT and IGF1R. The enzymatic reaction scheme is as follows:
(§2) 1. Prepare 1*kinase buffer as follows.
(§3) 3. […] Prepare 2.5-fold final concentration of kinase solution with 1×Kinase buffer.
(§4) 4. Add 10 μL of 2.5-fold final concentration of kinase solution to the compound well and the positive control well; add 10 μL of 1×Kinase buffer to the negative control well.
(§5) 5. Centrifuge at 1000 rpm for 30 s, shake the reaction plate for well mixing, and then incubate at room temperature for 10 minutes.
(§6) 6. Prepare a mixture of ATP and Kinase substrate at 5/3-fold final concentration with 1×Kinase buffer.
(§7) 8. Centrifuge the 384-well plate at 1000 rpm for 30 s, shake it well and then incubate it at room temperature for corresponding time.
(§8) 9. Add 30 μL of stop detection solution to stop the kinase reaction, centrifuge at 1000 rpm for 30 s, and shake it well.
(§9) 10. Read conversion rate with Caliper EZ Reader.
(§10) % Inhibition=((Conversion%_max−Conversion%_sample)/(Conversion%_max−Conversion%_min))*100
(§11) Wherein: Conversion%_sample is the sample conversion rate reading; Conversion%_min: Mean value of negative control wells, representing the conversion rate reading of wells without enzymatic activity; Conversion%_max: Mean value of positive control wells, representing the conversion rate reading of wells without compound inhibition.
(§12) The dose-effect curve was fitted with concentration log value as X-axis and percentage inhibition rate as Y-axis. GraphPad Prism 5 analysis software was used for fitting Log (inhibitor) vs. response—Variable slope with the dose-effect curve to obtain IC50 value of enzymatic activity for each compound.
(§13) The calculation formula is as Y-Bottom+(Top-Bottom)/(1+10^((Log IC50−X)*HillSlope)).

IGF1R = IGF1R (Homo sapiens, UniProt P08069); experiment: IGF1R kinase test (mobility variation analysis, Caliper EZ Reader); type: biochemical; settings: kinase enzymatic activity, Table 1; read-out: EGFR IGF1R IC50
IGF1R, sequence (P08069 31-1367, species assumed): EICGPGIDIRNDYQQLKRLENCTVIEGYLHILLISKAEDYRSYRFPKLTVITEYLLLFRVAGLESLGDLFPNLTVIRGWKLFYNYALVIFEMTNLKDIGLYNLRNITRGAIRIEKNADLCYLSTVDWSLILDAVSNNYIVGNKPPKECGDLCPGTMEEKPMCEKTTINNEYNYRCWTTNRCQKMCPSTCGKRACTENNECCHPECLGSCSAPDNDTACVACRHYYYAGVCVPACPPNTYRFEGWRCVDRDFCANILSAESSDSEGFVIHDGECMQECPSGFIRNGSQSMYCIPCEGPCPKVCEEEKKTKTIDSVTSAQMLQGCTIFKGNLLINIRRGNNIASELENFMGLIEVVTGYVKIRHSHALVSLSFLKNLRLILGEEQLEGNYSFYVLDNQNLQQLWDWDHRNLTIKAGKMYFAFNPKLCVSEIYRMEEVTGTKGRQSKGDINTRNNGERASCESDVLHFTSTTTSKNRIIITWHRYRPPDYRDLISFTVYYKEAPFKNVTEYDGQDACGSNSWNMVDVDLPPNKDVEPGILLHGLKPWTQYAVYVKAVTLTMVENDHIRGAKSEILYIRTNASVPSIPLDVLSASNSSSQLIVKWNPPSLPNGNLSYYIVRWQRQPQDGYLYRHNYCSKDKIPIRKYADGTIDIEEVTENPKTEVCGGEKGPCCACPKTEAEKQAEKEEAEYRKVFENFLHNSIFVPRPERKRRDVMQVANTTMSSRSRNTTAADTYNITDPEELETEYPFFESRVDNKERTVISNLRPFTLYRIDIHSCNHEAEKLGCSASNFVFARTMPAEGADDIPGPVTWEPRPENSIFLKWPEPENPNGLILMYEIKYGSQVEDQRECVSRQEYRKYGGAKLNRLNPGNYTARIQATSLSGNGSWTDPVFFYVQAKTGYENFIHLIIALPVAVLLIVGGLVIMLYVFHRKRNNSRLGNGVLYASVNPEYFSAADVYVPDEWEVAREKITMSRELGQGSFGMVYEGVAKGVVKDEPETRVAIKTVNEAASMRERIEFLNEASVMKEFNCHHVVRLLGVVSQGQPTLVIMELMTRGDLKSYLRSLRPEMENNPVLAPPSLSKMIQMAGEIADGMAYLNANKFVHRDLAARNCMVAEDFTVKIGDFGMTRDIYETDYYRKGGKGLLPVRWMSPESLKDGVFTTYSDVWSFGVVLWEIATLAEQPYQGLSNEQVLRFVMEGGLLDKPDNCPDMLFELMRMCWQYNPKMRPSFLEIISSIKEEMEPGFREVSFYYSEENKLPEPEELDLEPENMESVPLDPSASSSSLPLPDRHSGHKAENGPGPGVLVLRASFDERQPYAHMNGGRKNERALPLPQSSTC
Description: as §1, §2
2. Preparation of compound concentration gradient: The test compound was tested with an initial concentration of 3000 nM (300 nM for some triple mutations and 100 nM for others), diluted in a 384 source plate (96-well plate for comparative compound 1 and compounds 1-38) to a 100% DMSO solution with 100-fold final concentration, and the compound is 3-fold diluted with Precision to 10 concentrations. A dispenser Echo 550 was used to transfer 250 nL 100-fold final concentration of the compound to the target plate OptiPlate-384F.
3. Prepare 2.5-fold final concentration (5-fold for comparative compound 1 and compounds 1-38) of kinase solution with 1×Kinase buffer. Following steps should also be carried out for comparative compound 1 and compounds 1-38: Add each prepared intermediate dilution compounds to the compound wells of 384-well plate respectively, and test the repeated wells of each concentration; add 5% DMSO of 5 plates into the negative control well and the positive control well respectively. Prepare 2.5-fold final concentration of kinase solution with 1×Kinase buffer.
as §4, §5, §6
7. Add 15 μL mixture of 5/3-fold (2.5-fold for comparative compound 1 and compounds 1-38) final concentration of ATP and substrate to start reaction.
as §7, §8, §9, §10, §11, §12, §13

[1] = target: Ba/F3 cells with EGFR Δ19del/T790M/C797S mutation gene stably overexpressed (Homo sapiens, UniProt P00533, T790M/C797S, cells depend on it, form not given); experiment: Ba/F3-Δ19del/T790M/C797S cell proliferation assay (CellTiter Glo, 72 hours); type: cell-based; settings: Table 2, read-out: EGFR Δ19del/T790M/C797S IC50
Description: (§14) Cell line: Ba/F3 cells with EGFR Δ19del/T790M/C797S mutation gene stably overexpressed named Ba/F3-Δ119del/T90M/C797S, and A431 and Ba/F3-EGFR wild-type cell line.
(§15) a) Centrifuge the growth cells in logarithmic phase at 1000 rpm for 5 minutes, resuspend the cells in culture medium, and then count the cells;
(§16) b) Inoculate the cells into a 96-well cell culture plate with a density of 2000 cells/well;
(§17) b) Incubate cells in an incubator for another 72 hours.
(§18) a) Take out the 96-well cell culture plate and add 50 μl CTG reagent (CellTiter Glo kit, promega, Cat #G7573);
(§19) b) Shake the plate for 2 minutes and let cool at room temperature for 10 minutes;
(§20) c) Read luminous signal value with PerkinElmer reader,
(§21) Analysis of Experimental Data
(§22) The data were analyzed by GraphPad Prism 6.0 software to obtain the fitting curve of compound activity.
(§23) Y=Min+(Max−Min)/(1+10^((Log IC50−X)*slope));
(§24) X: Logarithm of compound concentration; Y: luminous signal.

A431 = A431 cell proliferation assay (CellTiter Glo, 72 hours); type: cell-based; settings: cell proliferation, A431, 72 hours, Table 2, read-out: A431 IC50
Description: as §14
RPMI 1640 and 10% FBS and 1% PS; DMEM and 10% FBS and 1% PS.
a) Dilute the test compound (20 mM stock solution) to 10 mM with 100% DMSO as the starting concentration, and then serially dilute 3 times with a “9+0” concentration in 96-well dilution plate (Cat #P-05525, Labcyte);
b) Dilute compound solution thereof to 1:100 (1:20 for comparative compound 1 and compounds 1-38) in medium to prepare 10-fold working solution;
as §15, §16
a) Compounds prepared at step 2 were added to cell plate with 15 μl per well, the final concentrations were 1000, 333, 111.1, 37, 12.3, 4.1, 1.4, 0.5, 0.2 and 0 nM, and the final concentration of DMSO was 0.1%. The blank control well was a culture medium (0.1% DMSO) (the blank control well of comparative compound 1 and compounds 1-38 was a culture medium (0.5% DMSO).
as §17, §18, §19, §20, §21, §22
Fitting compound IC50 from nonlinear regression equation:
as §23, §24

EGFR WT = EGFR WT (Homo sapiens, UniProt P00533); experiment: EGFR WT kinase test (mobility variation analysis, Caliper EZ Reader); type: biochemical; settings: kinase enzymatic activity, Table 1
Description: as §1, §2, §3, §4, §5, §6, §7, §8, §9, §10, §11, §12, §13

Compound | IC50 (EGFRΔ19del/T790M/C797S) | IC50 (IGF1R) | GI50 [1] | IC50 (A431; Homo sapiens, A-431, 72 h) | IC50 (EGFR WT) | IC50 (A431)
CCc1cc(Nc2ncc(Cl)c(Nc3ccc(-c4ccccc4)cc3P(C)(C)=O)n2)c(OC)cc1N1CCC(N2CCN(C)CC2)CC1 [Compound 2, (4-((5-Chloro-2-((5-ethyl-2-methoxy-4-(4-(4-methylpiperazin-1-yl)piperidin-1-yl)phenyl)amino)pyrimidin-4-yl)amino)-[1,1′-biphenyl]-3-yl)dimethylphosphine oxide] | 0.7 nM | 150 nM | 21.8 nM | 812 nM | – | –
CCc1cc(Nc2ncc(Br)c(Nc3ccc(-c4cccc(C#N)c4)cc3P(C)(C)=O)n2)c(OC)cc1N1CCC(N2CCN(C)CC2)CC1 [Compound 5, 4′-((5-Bromo-2-((5-ethyl-2-methoxy-4-(4-(4-methylpiperazin-1-yl)piperidin-1-yl)phenyl)amino)pyrimidin-4-yl)amino)-3′-(dimethylphosphineoxide)-[1,1′-diphenyl]-3-carbonitrile] | 0.4 nM | 117 nM | 18.7 nM | > 10000 nM | 12.5 nM | –
CCc1cc(Nc2ncc(Br)c(Nc3ccc(-c4ccc(F)cc4F)cc3P(C)(C)=O)n2)c(OC)cc1N1CCC(N2CCN(C)CC2)CC1 [Compound 6, (4-((5-Bromo-2-((5-ethyl-2-methoxy-4-(4-(4-methylpiperazin-1-yl)piperidin-1-yl)phenyl)amino)pyrimidin-4-yl)amino)-2′,4′-difluoro-[1,1′-biphenyl]-3-yl)dimethylphosphine oxide] | 0.9 nM | 147 nM | 21.4 nM | > 10000 nM | 16.7 nM | –
CCc1cc(Nc2ncc(Cl)c(Nc3ccc(-c4cnn5c4OCCC5)cc3P(C)(C)=O)n2)c(OC)cc1N1CCC(N2CCN(C)CC2)CC1 [Compound 7, (2-((5-Chloro-2-((5-ethyl-2-methoxy-4-(4-(4-methylpiperazin-1-yl)piperidin-1-yl)phenyl)amino)pyrimidin-4-yl)amino)-5-(6,7-dihydro-5H-pyrazolo[5,1-b][1,3]nitrox-3-yl)phenyl)dimethylphosphine oxide] | 0.5 nM | 187 nM | 46.2 nM | – | – | –
CCc1cc(Nc2ncc(Cl)c(Nc3ccc(-c4cncs4)cc3P(C)(C)=O)n2)c(OC)cc1N1CCC(N2CCN(C)CC2)CC1 [Compound 15, (2-((5-Chloro-2-((5-ethyl-2-methoxy-4-(4-(4-methylpiperazin-1-yl)piperidin-1-yl)phenyl)amino)pyrimidin-4-yl)amino)-5-(thiazol-5-yl)phenyl)dimethylphosphine oxide] | 0.3 nM | 66.5 nM | 16.1 nM | – | – | –
CCc1cc(Nc2ncc(Cl)c(Nc3ccc(-c4cnn5cnccc45)cc3P(C)(C)=O)n2)c(OC)cc1N1CCC(N2CCN(C)CC2)CC1 [Compound 23, (2-((5-Chloro-2-((5-ethyl-2-methoxy-4-(4-(4-methylpiperazin-1-yl)piperidin-1-yl)phenyl)amino)pyrimidin-4-yl)amino)-5-(pyrazolo[1,5-c]pyrimidin-3-yl)phenyl)dimethylphosphine oxide] | 0.5 nM | 261 nM | 42.9 nM | – | 18.9 nM | –
CCc1cc(Nc2ncc(Cl)c(Nc3ccc(-c4cnc(C)nc4)cc3P(C)(C)=O)n2)c(OC)cc1N1CCC(N2CCN(C)CC2)CC1 [Compound 24, (2-((5-Chloro-2-((5-ethyl-2-methoxy-4-(4-(4-methylpiperazin-1-yl)piperidin-1-yl)phenyl)amino)pyrimidin-4-yl)amino)-5-(2-methylpyrimidin-5-yl)phenyl)dimethylphosphine oxide] | 0.7 nM | 264 nM | 44 nM | – | 66.9 nM | –
CCc1cc(Nc2ncc(Cl)c(Nc3ccc(-c4nn(C)cc4C#N)cc3P(C)(C)=O)n2)c(OC)cc1N1CCC(N2CCN(C)CC2)CC1 [Compound 57] | 0.4 nM | 196 nM | 40.8 nM | – | 13.9 nM | –
CCc1cc(Nc2ncc(Br)c(Nc3ccc(-c4nccnc4OC)cc3P(C)(C)=O)n2)c(OC)cc1N1CCC(N2CCN(C)CC2)CC1 [Compound 72, (2-((5-Bromo-2-((5-ethyl-2-methoxy-4-(4-(4-methylpiperazin-1-yl)piperidin-1-yl)phenyl)(amino)amino]pyrimidin-4-yl)amino)-5-(3-methoxypyrazin-2-yl)phenyl)dimethylphosphine oxide] | – | – | 29.4 nM | > 10000 nM | – | –
CCc1cc(Nc2ncc(Br)c(Nc3ccc(-c4ccc(N(C)C)nn4)cc3P(C)(C)=O)n2)c(OC)cc1N1CCC(N2CCN(C)CC2)CC1 [Compound 77, (2-((5-Bromo-2-((5-ethyl-2-methoxy-4-(4-(4-methylpiperazin-1-yl)piperidin-1-yl)phenyl)amino]pyrimidin-4-yl)amino)-5-(6-(dimethylamino)pyridazin-3-yl)phenyl)dimethylphosphine oxide] | – | – | 27.2 nM | – | – | > 10000 nM
CCc1cc(Nc2ncc(Br)c(Nc3ccc(-c4cnn(C)n4)c(F)c3P(C)(C)=O)n2)c(OC)cc1N1CCC(N2CCN(C)CC2)CC1 [Compound 84, (6-((5-Bromo-2-((5-ethyl-2-methoxy-4-(4-(4-methylpiperazin-1-yl)piperidin-1-yl)phenyl)amino)pyrimidin-4-yl)amino)-2-fluoro-3-(2-methyl-2H-1,2,3-triazol-4-yl)phenyl)dimethylphosphine oxide] | 0.1 nM | 54.9 nM | 5.8 nM | – | – | 1210 nM
COc1cc(N2CCC(N3CCCCC3)CC2)c(-c2cnn(C)c2)cc1Nc1ncc(Br)c(Nc2ccc(-c3ccccc3)cc2P(C)(C)=O)n1 [Compound K-100] | – | – | 2.1 nM | 99.6 nM | – | –
CCc1cc(Nc2ncc(Br)c(Nc3ccc(-c4cnn(C(F)F)n4)cc3P(C)(C)=O)n2)c(OC)cc1N1CCC(N2CCN(C)CC2)CC1 [Compound K-106, (2-((5-Bromo-2-((5-ethyl-2-methoxy-4-(4-(4-methylpiperazin-1-yl)piperidin-1-yl)phenyl)amino)pyrimidin-4-yl)amino)-5-(2-(difluoromethyl)-2H-1,2,3-triazol-4-yl)phenyl)dimethylphosphine oxide] | 0.5 nM | 56 nM | – | – | 17 nM | –
(2-((5-Chloro-2-((5-ethyl-2-methoxy-4-(4-(4-methylpiperazin-1-yl)piperidin-1-yl)phenyl)amino)pyrimidin-4-yl)amino)-5-(3-ethoxy-5-methylisoxazol-4-yl)phenyl)dimethylphosphine oxide [Compound K-061] | 1.6 nM | 886 nM | – | – | 44 nM | –
